Source: patent US20240269298A1, “PHOSPHONYL DERIVATIVE, AND COMPOSITION AND PHARMACEUTICAL APPLICATION THEREOF” (XIZANG HAISCO PHARMACEUTICAL CO., LTD., priority 2021, published 2024)
pIC50: −log10 of the molar value. Like-named read-outs stand apart in the source and are kept apart here.

Assays:
A431 (EGFR-WT) cells = test: Inhibitory activity on proliferation of A431 (EGFR-WT) cells (CTG, 72 h); type: cell-based; conditions: Homo sapiens, A-431
Procedure: NCI-H1975 (EGFR-L858R-T790M) and A431 (EGFR-WT) cells were purchased from ATCC and cultured in an incubator at 37° C. with 5% CO2, and the culture mediums were RPMI1640+10% FBS and DMEM+10% FBS, respectively. On the first day, NCI-H1975 (EGFR-L858R-T790M) and A431 (EGFR-WT) cells in the logarithmic phase were collected, and viable cells were counted using an automatic cell analyzer (countstar). The cell suspensions were adjusted with the culture mediums and plated on a 96-well cell culture plate at 1000 cells/well for NCI-H1975 (EGFR-L858R-T790M) cells and at 3000 cells/well for A431 cells. The next day, the culture mediums were aspirated, and 90 μL of fresh culture mediums and 10 μL of the compounds at different concentrations were added to each well, wherein the final concentration of DMSO in each well was 0.1%. The plate was cultured in the incubator at 37° C. with 5% CO2 for 72 hours. After 72 hours of drug treatment, 50 μL of CTG solution (promega, G7572), which was already pre-melted and equilibrated to room temperature, was added to each well, and the mixtures were uniformly mixed for 2 min using a microplate shaker. The plate was placed at room temperature for 10 min, and then […] signal values were measured using a microplate reader (PHERAstar FSX).
Surviving cells % was calculated based on Vsample/Vvehicle control×100%, wherein Vsample was the readout of the drug-treated group, and Vvehicle control was the average value of the vehicle control group. Using the origin 9.2 software and nonlinear regression model, S-shaped dose-survival curves were plotted, and IC50 values were calculated.

[1] = tested on: NCI-H1975 (EGFR-L858R-T790M) cells; test: Inhibitory activity on proliferation of NCI-H1975 (EGFR-L858R-T790M) cells (CTG, 72 h); type: cell-based; conditions: Homo sapiens
Outline: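 IC50 values come from S-shaped dose-survival fits of CTG signal expressed as % of vehicle. Compound exposure lasted 72 h at 37 °C with 0.1% DMSO; seeding was 3000 A431 cells/well in DMEM+10% FBS and 1000 NCI-H1975 cells/well in RPMI1640+10% FBS.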

[2] = read-out: IC50 (value in brackets)

| SMILES | pIC50 (A431 (EGFR-WT) cells) | pIC50 ([1]; read-out: IC50 (class symbol)) | pIC50 [1, 2] |
| --- | --- | --- | --- |
| COc1cc(N2CCC3(CC2)CC(N2CCN(c4ccc5c(c4)C(=O)N(C4CCC(=O)NC4=O)C5=O)CC2)C3)c(-c2cnn(C)c2)cc1Nc1ncc(Br)c(Nc2ccc(-c3ccccc3)cc2P(C)(C)=O)n1 (stereo not drawn) [Compound 83, 5-(4-(7-(4-((5-bromo-4-((3-(dimethylphosphoryl)-[1,1′-biphenyl]-4-yl)amino)pyrimidin-2-yl)amino)-5-methoxy-2-(1-methyl-1H-pyrazol-4-yl)phenyl)-7-azaspiro[3.5]nonan-2-yl)piperazin-1-yl)-2-(2,6-dioxopiperidin-3-yl)isoindoline-1,3-dione] | ≤ 5.00 | 6.30 to 7.00 | 6.90 |
| COc1cc(N2CCN(C3CCN(CC4CCN(c5cc6c(cc5F)C(=O)N(C5CCC(=O)NC5=O)C6=O)CC4)CC3)CC2)c(-c2cnn(C)c2)cc1Nc1ncc(Cl)c(Nc2ccc(-c3ccccc3)cc2P(C)(C)=O)n1 (stereo not drawn) [Compound 50, 5-(4-((4-(4-(4-((5-chloro-4-((3-(dimethylphosphoryl)-[1,1′-biphenyl]-4-yl)amino)pyrimidin-2-yl)amino)-5-methoxy-2-(1-methyl-1H-pyrazol-4-yl)phenyl)piperazin-1-yl)piperidin-1-yl)methyl)piperidin-1-yl)-2-(2,6-dioxopiperidin-3-yl)-6-fluoroisoindoline-1,3-dione] | ≤ 5.00 | 6.30 to 7.00 | 6.88 |
| COc1cc(N2CCC(CN3CCN(c4ccc(C(=O)NC5CCC(=O)NC5=O)nc4)CC3)CC2)c(-c2cnn(C)c2)cc1Nc1ncc(Cl)c(Nc2ccc(-c3ccccc3)cc2P(C)(C)=O)n1 (stereo not drawn) [Compound 66, 5-(4-((1-(4-((5-chloro-4-((3-(dimethylphosphoryl)-[1,1′-biphenyl]-4-yl)amino)pyrimidin-2-yl)amino)-5-methoxy-2-(1-methyl-1H-pyrazol-4-yl)phenyl)piperidin-4-yl)methyl)piperazin-1-yl)-N-(2,6-dioxopiperidin-3-yl)picolinamide] | ≤ 5.00 | > 7.00 | 7.00 |
| COc1cc(N2CCC(C(=O)N3CCN(c4ccc5c(c4)C(=O)N(C4CCC(=O)NC4=O)C5=O)CC3)CC2)c(-c2cnn(C)c2)cc1Nc1ncc(Br)c(Nc2ccccc2P(C)(C)=O)n1 (stereo not drawn) [Compound 146, 5-(4-(1-(4-((5-bromo-4-((2-(dimethylphosphoryl)phenyl)amino)pyrimidin-2-yl)amino)-5-methoxy-2-(1-methyl-1H-pyrazol-4-yl)phenyl)piperidine-4-carbonyl)piperazin-1-yl)-2-(2,6-dioxopiperidin-3-yl)isoindoline-1,3-dione] | ≤ 5.00 | > 7.00 | 7.02 |
| COc1cc(N2CCN(C[C@H]3CCN(c4ccc5c(c4)C(=O)N(C4CCC(=O)NC4=O)C5=O)C3)CC2)c(-c2cnn(C)c2)cc1Nc1ncc(Cl)c(Nc2ccc(-c3ccccc3)cc2P(C)(C)=O)n1 (stereo partly drawn) [Compound 118, 5-((R)-3-((4-(4-((5-chloro-4-((3-(dimethylphosphoryl)-[1,1′-biphenyl]-4-yl)amino)pyrimidin-2-yl)amino)-5-methoxy-2-(1-methyl-1H-pyrazol-4-yl)phenyl)piperazin-1-yl)methyl)pyrrolidin-1-yl)-2-(2,6-dioxopiperidin-3-yl)isoindoline-1,3-dione] | ≤ 5.00 | > 7.00 | 7.40 |
| COc1cc(N2CCC(CN3CCN(c4ccc5c(c4)C(=O)N([C@@H]4CCC(=O)NC4=O)C5=O)CC3)CC2)c(-c2cnn(C)c2)cc1Nc1ncc(Br)c(Nc2ccc(C3CC3)cc2P(C)(C)=O)n1 [Compound 171] | ≤ 5.00 | > 7.00 | 7.11 |
| COc1cc(N2CCN(C3CCN(CC4CCN(c5cc6c(cc5F)C(=O)N(C5CCC(=O)NC5=O)C6=O)CC4)CC3)CC2)c(-c2cnn(C)c2)cc1Nc1ncc(Br)c(Nc2ccc(-c3ccccc3)cc2P(C)(C)=O)n1 (stereo not drawn) [Compound 46, 5-(4-((4-(4-(4-((5-bromo-4-((3-(dimethylphosphoryl)-[1,1′-biphenyl]-4-yl)amino)pyrimidin-2-yl)amino)-5-methoxy-2-(1-methyl-1H-pyrazol-4-yl)phenyl)piperazin-1-yl)piperidin-1-yl)methyl)piperidin-1-yl)-2-(2,6-dioxopiperidin-3-yl)-6-fluoroisoindoline-1,3-dione] | ≤ 5.00 | > 7.00 | 7.15 |
| COc1cc(N2CCC(N3CCN(CC4CCN(c5ccc6c(c5)C(=O)N(C5CCC(=O)NC5=O)C6=O)C4)CC3)CC2)c(-c2cnn(C)c2)cc1Nc1ncc(Br)c(Nc2ccc3nccnc3c2P(C)(C)=O)n1 (stereo not drawn) [Compound 30, 5-(3-((4-(1-(4-((5-bromo-4-((5-(dimethylphosphoryl)quinoxalin-6-yl)amino)pyrimidin-2-yl)amino)-5-methoxy-2-(1-methyl-1H-pyrazol-4-yl)phenyl)piperidin-4-yl)piperazin-1-yl)methyl)pyrrolidin-1l-yl)-2-(2,6-dioxopiperidin-3-yl)isoindoline-1,3-dione] | ≤ 5.00 | > 7.00 | 7.92 |
| COc1cc(N2CCC(C(=O)N3CCN(c4ccc5c(c4)C(=O)N(C4CCC(=O)NC4=O)C5=O)CC3)CC2)c(-c2cnn(C)c2)cc1Nc1ncc(Cl)c(Nc2ccc(C3CC3)cc2P(C)(C)=O)n1 (stereo not drawn) [Compound 143, 5-(4-(1-(4-((5-chloro-4-((4-cyclopropyl-2-(dimethylphosphoryl)phenyl)amino)pyrimidin-2-yl)amino)-5-methoxy-2-(1-methyl-1H-pyrazol-4-yl)phenyl)piperidine-4-carbonyl)piperazin-1-yl)-2-(2,6-dioxopiperidin-3-yl)isoindoline-1,3-dione] | ≤ 5.00 | 6.30 to 7.00 | 6.96 |
| COc1cc(N2CCC(C3CCN(CC4CCN(c5ccc6c(c5)C(=O)N(C5CCC(=O)NC5=O)C6=O)CC4)CC3)CC2)c(-c2cnn(C)c2)cc1Nc1ncc(Br)c(Nc2ccc(-c3ccccc3)cc2P(C)(C)=O)n1 (stereo not drawn) [Compound 36, 5-(4-((1′-(4-((5-bromo-4-((3-(dimethylphosphoryl)-[1,1′-biphenyl]-4-yl)amino)pyrimidin-2-yl)amino)-5-methoxy-2-(1-methyl-1H-pyrazol-4-yl)phenyl)-[4,4′-bipiperidin]-1-yl)methyl)piperidin-1-yl)-2-(2,6-dioxopiperidin-3-yl)isoindoline-1,3-dione] | ≤ 5.00 | 6.30 to 7.00 | 6.78 |

More lines, now with the values ahead:

| pIC50 (A431 (EGFR-WT) cells) | pIC50 ([1]; read-out: IC50 (class symbol)) | pIC50 [1, 2] | SMILES |
| --- | --- | --- | --- |
| ≤ 5.00 | > 7.00 | 7.80 | COc1cc(N2CCN(C[C@H]3CCN(c4ccc5c(c4)C(=O)N(C4CCC(=O)NC4=O)C5=O)C3)CC2)c(-c2cnn(C)c2)cc1Nc1ncc(Br)c(Nc2ccc(C3CC3)cc2P(C)(C)=O)n1 (stereo partly drawn) [Compound 121, 5-((R)-3-((4-(4-((5-bromo-4-((4-cyclopropyl-2-(dimethylphosphoryl)phenyl)amino)pyrimidin-2-yl)amino)-5-methoxy-2-(1-methyl-1H-pyrazol-4-yl)phenyl)piperazin-1-yl)methyl)pyrrolidin-1-yl)-2-(2,6-dioxopiperidin-3-yl)isoindoline-1,3-dione] |
| ≤ 5.00 | > 7.00 | 7.41 | COc1cc(N2CCN(CC3CCN(c4ccc5c(c4)C(=O)N(C4CCC(=O)NC4=O)C5=O)CC3)CC2)c(-c2cnn(C)c2)cc1Nc1ncc(Cl)c(Nc2ccc(C3CC3)cc2P(C)(C)=O)n1 (stereo not drawn) [Compound 126, 5-(4-((4-(4-((5-chloro-4-((4-cyclopropyl-2-(dimethylphosphoryl)phenyl)amino)pyrimidin-2-yl)amino)-5-methoxy-2-(1-methyl-1H-pyrazol-4-yl)phenyl)piperazin-1-yl)methyl)piperidin-1-yl)-2-(2,6-dioxopiperidin-3-yl)isoindoline-1,3-dione] |
| ≤ 5.00 | > 7.00 | 7.31 | COc1cc(N2CCC(CN3CCN(c4ccc5c(c4)C(=O)N([C@H]4CCC(=O)NC4=O)C5=O)CC3)CC2)c(-c2cnn(C)c2)cc1Nc1ncc(Cl)c(Nc2ccc(C3CC3)cc2P(C)(C)=O)n1 [Compound 172] |
| ≤ 5.00 | > 7.00 | 7.11 | COc1cc(N2CCC(N3CCN(CC4(F)CCN(c5ccc6c(c5)C(=O)N(C5CCC(=O)NC5=O)C6=O)CC4)CC3)CC2)c(-c2cnn(C)c2)cc1Nc1ncc(Br)c(Nc2ccc(-c3ccccc3)cc2P(C)(C)=O)n1 (stereo not drawn) [Trifluoroacetate of compound 86, 5-(4-((4-(1-(4-((5-bromo-4-((3-(dimethylphosphoryl)-[1,1′-biphenyl]-4-yl)amino)pyrimidin-2-yl)amino)-5-methoxy-2-(1-methyl-1H-pyrazol-4-yl)phenyl)piperidin-4-yl)piperazin-1-yl)methyl)-4-fluoropiperidin-1-yl)-2-(2,6-dioxopiperidin-3-yl)isoindoline-1,3-dione] |
